Values quoted from earlier work, collected in patent US20030212274A1, “Novel amorphous form of omeprazole salts” (priority 2003, published 2003).
Like-named read-outs stand apart in the source and are kept apart here.

Assays:
[1] = storage at +37° C., relative humidity 80%, 6 months (accelerated conditions)

substance converted to degradation products [1]: about 6% | half-life of degradation in water solutions (pH-values less than four): ten | half-life of degradation in water solutions (pH=7): about 14 hours
Structure (SMILES): COc1ccc2[nH]c([S+]([O-])Cc3ncc(C)c(OC)c3C)nc2c1 (stereo not drawn) [Omeprazole, 5-methoxy-2-[(4-methoxy-3,5-dimethyl-2-pyridinyl)-methyl]sulfinyl-1H-benzimidazole]
